From patent US20250171462A1 (NICO Therapeutics, Inc., priority 2022, published 2025) come the findings set out here.

For orientation: IC50 means the point on the concentration scale where inhibition reaches its midpoint.

Where two headings read alike, the source gives them in different places. Bounds are passed on as bounds.

The target in the test is T1, full-length SARM1 (FL-SARM1) (Homo sapiens, UniProt Q6SZW1).
T1 sequence (Q6SZW1 28-724): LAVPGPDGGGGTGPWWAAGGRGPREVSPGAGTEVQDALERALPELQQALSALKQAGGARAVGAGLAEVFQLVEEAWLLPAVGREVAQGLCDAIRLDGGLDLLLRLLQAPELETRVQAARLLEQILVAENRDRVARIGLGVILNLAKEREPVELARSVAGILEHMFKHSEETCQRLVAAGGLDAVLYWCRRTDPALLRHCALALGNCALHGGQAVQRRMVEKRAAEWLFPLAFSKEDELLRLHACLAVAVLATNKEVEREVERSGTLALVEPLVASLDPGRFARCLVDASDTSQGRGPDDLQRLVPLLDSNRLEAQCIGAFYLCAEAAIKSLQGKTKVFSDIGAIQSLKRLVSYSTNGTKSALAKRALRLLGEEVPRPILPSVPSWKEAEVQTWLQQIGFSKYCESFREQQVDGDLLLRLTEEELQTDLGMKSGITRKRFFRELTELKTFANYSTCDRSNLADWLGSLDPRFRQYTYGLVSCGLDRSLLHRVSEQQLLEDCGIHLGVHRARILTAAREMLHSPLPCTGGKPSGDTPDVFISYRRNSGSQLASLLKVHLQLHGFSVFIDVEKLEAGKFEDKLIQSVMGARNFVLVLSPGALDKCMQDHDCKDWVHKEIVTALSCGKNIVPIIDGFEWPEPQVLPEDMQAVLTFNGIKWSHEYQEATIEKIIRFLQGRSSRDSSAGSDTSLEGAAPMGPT
Briefly: FL-SARM1 cellular lysate assay (NAD/NADH-Glo detection of remaining NAD+, NMN-activated).

[1] abbreviates: Activity (IC50 class), 11 point curve.
Where [2] appears, read: Activity (μM) (IC50), 11 point curve.
[3] abbreviates: read-out: Activity (IC50 class), 11 point curve.

For the molecule `Cc1ccc(NC(=O)N2CCCC2c2ncccn2)cc1-c1ccccn1` (racemic) [Example 91, N-(4-methyl-3-pyridin-2-ylphenyl)-2-pyrimidin-2-ylpyrrolidine-1-carboxamide], the IC50 was over 10 µM under setting [1] and 16 µM under setting [2].

As for `Cc1ccc(NC(=O)[C@@H]2C[C@H]3CC[C@@H]2C3)cc1-c1ccccn1` (single isomer, unassigned) [Example 138, cis-N-(4-methyl-3-pyridin-2-ylphenyl)bicyclo[2.2.1]heptane-2-carboxamide], the IC50 was 0.7 µM under setting [2] and 0.0001 to 1 µM under setting [3].

Consider `Cc1ccc(NC(=O)[C@@H]2C[C@H]3C[C@H]32)cc1-c1ccccn1` (racemic) [Example 116, trans-N-(4-methyl-3-pyridin-2-ylphenyl)bicyclo[2.1.0]pentane-2-carboxamide], for which the IC50 is 1 to 10 µM under setting [1] and 7.4 µM under setting [2].

For `Cc1ccc(NC(=O)N2C3CCC2c2ncccc23)cc1-c1ccccn1` (centres unmarked) [Example 100, N-(4-methyl-3-pyridin-2-ylphenyl)-3,11-diazatricyclo[6.2.1.02,7]undeca-2,4,6-triene-11-carboxamide], the IC50 is, setting by setting: under setting [2], 0.6 µM; under setting [3], 0.0001 to 1 µM.

For the molecule `Cc1ccc(NC(=O)N2C3CCC2[C@@H](C)C3)cc1-c1ncc(F)cn1` (single isomer, unassigned) [Example 195, cis-N-(3-(5-fluoropyrimidin-2-yl)-4-methylphenyl)-2-methyl-7-azabicyclo[2.2.1]heptane-7-carboxamide], the IC50 under setting [2] is 0.3 µM and the IC50 under setting [3] lay within 0.0001 to 1 µM.

In turn, `Cc1ccc(NC(=O)[C@H]2C[C@H]3C[C@H]3N2c2ncc(Cl)nn2)cc1-c1ncc(F)cn1` [Example 263, (1R,3R,5R)-2-(6-chloro-1,2,4-triazin-3-yl)-N-[3-(5-fluoropyrimidin-2-yl)-4-methylphenyl]-2-azabicyclo[3.1.0]hexane-3-carboxamide] gave an IC50 under setting [1] of 1 to 10 µM and an IC50 under setting [2] of 1.8 µM.

Regarding `O=C(Nc1ccc(C(F)(F)F)c(-c2ccc(F)cn2)c1)[C@@H]1CC1(F)F` [Example 125, (1S)-2,2-difluoro-N-[3-(5-fluoropyridin-2-yl)-4-(trifluoromethyl)phenyl]cyclopro-pane-1-carboxamide], the IC50 under setting [1] was 1 to 10 µM and the half-inhibitory concentration (IC50) under setting [2] was 3.5 µM.

For `O=C(Nc1ccc(C(F)(F)F)c(-c2ncc(F)cn2)c1)N1C2CCCCC1C2` [Example 311, N-(3-(5-fluoropyrimidin-2-yl)-4-(trifluoromethyl)phenyl)-7-azabicyclo[4.1.1]octane-7-carboxamide], the IC50 is 0.1 µM under setting [2] and 0.0001 to 1 µM under setting [3].

With `Cc1ccc(NC(=O)N2C3C[C@H](OC(F)F)C[C@H]2C3)cc1-c1ccccn1` [Example 29, trans-3-(difluoromethoxy)-N-(4-methyl-3-(pyridin-2-yl)phenyl)-6-azabicyclo[3.1.1]heptane-6-carboxamide], the midpoint of inhibition under setting [2], the IC50, lay at 0.06 µM and the IC50 under setting [3] lay in the range of 0.0001 to 1 µM.

`CCO[C@@H]1CC2C[C@H](C1)N2C(=O)Nc1ccc(C)c(-c2ccccn2)c1` [Example 84, cis-3-ethoxy-N-(4-methyl-3-(pyridin-2-yl)phenyl)-6-azabicyclo[3.1.1]heptane-6-carboxamide]: the IC50 is, setting by setting: under setting [1], 1 to 10 µM; under setting [2], 1.6 µM.

For `Cc1ccc(NC(=O)N2C3C[C@@H](C)C[C@H]2C3)cc1-c1nccnn1` [Example 215, cis-3-methyl-N-(4-methyl-3-(1,2,4-triazin-3-yl)phenyl)-6-azabicyclo[3.1.1]heptane-6-carboxamide], the IC50 is 0.03 µM under setting [2] and 0.0001 to 1 µM under setting [3].

Consider `O=C(Nc1ccc(C2CC2)c(-c2ccccn2)c1)N1C2CCCC1C2` [Example 34, N-(4-cyclopropyl-3-(pyridin-2-yl)phenyl)-6-azabicyclo[3.1.1]heptane-6-carboxamide], for which the IC50 runs as follows: under setting [1], 1 to 10 µM; under setting [2], 1.1 µM.

For `Cc1ccc(NC(=O)N2C3CCCC2C3)cc1-c1ncc(F)cn1` [Example 55, N-(3-(5-fluoropyrimidin-2-yl)-4-methylphenyl)-6-azabicyclo[3.1.1]heptane-6-carboxamide], the concentration for half-maximal inhibition (IC50) is, setting by setting: under setting [2], 0.2 µM; under setting [3], 0.0001 to 1 µM.

Take `Cc1ccc(NC(=O)N2C3CC2CC(C(F)(F)F)C3)cc1-c1ccccn1` (single isomer, unassigned) [Example 86, N-(4-methyl-3-pyridin-2-ylphenyl)-3-(trifluoromethyl)-6-azabicyclo[3.1.1]heptane-6-carboxamide]: the IC50 reads like this: under setting [2], 0.01 µM; under setting [3], 0.0001 to 1 µM.

As for `O=C(Nc1ccc(Cl)c(-c2ccccn2)c1)N1C2CCCC1C2` [Example 20, N-(4-chloro-3-(pyridin-2-yl)phenyl)-6-azabicyclo[3.1.1]heptane-6-carboxamide], the IC50 runs as follows: under setting [2], 0.4 µM; under setting [3], 0.0001 to 1 µM.

On to `Cc1ccc(NC(=O)C2C3CCC2CC3)cc1-c1ccccn1` (centres unmarked) [Example 73, N-(4-methyl-3-(pyridin-2-yl)phenyl)bicyclo[2.2.1]heptane-7-carboxamide], for which the IC50 runs as follows: under setting [2], 0.09 µM; under setting [3], 0.0001 to 1 µM.

For `Cc1ccc(NC(=O)CC2CCC2)cc1-c1ccccn1` [Example 168, 2-cyclobutyl-N-(4-methyl-3-pyridin-2-ylphenyl)acetamide], the IC50 by setting is: under setting [1], 1 to 10 µM; under setting [2], 1.3 µM.

As to `COCCOCc1ccnc(-c2cc(NC(=O)N3[C@@H]4C[C@@H](C)C[C@H]3C4)ccc2C)n1` [Example 243, cis-N-[3-[4-(2-methoxyethoxymethyl)pyrimidin-2-yl]-4-methylphenyl]-3-methyl-6-azabicyclo[3.1.1]heptane-6-carboxamide], the IC50 runs as follows: under setting [1], 1 to 10 µM; under setting [2], 1.1 µM.

Regarding `Cc1ccc(NC(=O)[C@@H]2C[C@H](C(F)(F)F)CN2c2ncccn2)cc1-c1cccnn1` [Example 174, (2S,4S)—N-(4-methyl-3-(pyridazin-3-yl)phenyl)-1-(pyrimidin-2-yl)-4-(trifluoromethyl)pyrrolidine-2-carboxamide], the IC50 reads like this: under setting [1], over 10 µM; under setting [2], 25 µM.

Take `Cc1ccc(NC(=O)N2[C@@H]3CC(C)C[C@H]2C3)cc1-c1ncccc1C` (mixture of isomers) [Example 31, 3-methyl-N-(4-methyl-3-(3-methylpyridin-2-yl)phenyl)-6-azabicyclo[3.1.1]heptane-6-carboxamide]: the IC50 runs as follows: under setting [2], 0.8 µM; under setting [3], 0.0001 to 1 µM.

With `Cc1ccc(NC(=O)[C@H]2C[C@H]3C[C@H]3N2c2cnccn2)cc1-c1ncc(F)cn1` [Example 264, (1R,3R,5R)-N-[3-(5-fluoropyrimidin-2-yl)-4-methylphenyl]-2-pyrazin-2-yl-2-azabicyclo[3.1.0]hexane-3-carboxamide], the IC50 under setting [1] was in the range of 1 to 10 µM and it took 1.1 µM to reach half-maximal inhibition under setting [2] (IC50).

As for `O=C(Nc1ccc(F)c(-c2ccc(F)cn2)c1)N1C2CCCC1C2` [Example 35, N-(4-fluoro-3-(5-fluoropyridin-2-yl)phenyl)-6-azabicyclo[3.1.1]heptane-6-carboxamide], the IC50 is 1 to 10 µM under setting [1] and 3.5 µM under setting [2].

As to `Cc1ccc(NC(=O)[C@H]2C[C@H]2c2ccccc2)cc1-c1cccnn1` [Example 298, (1S,2R)-N-(4-methyl-3-pyridazin-3-ylphenyl)-2-phenylcyclopropane-1-carboxamide], the IC50 is 0.6 µM under setting [2] and 0.0001 to 1 µM under setting [3].

On to `Cc1ccc(NC(=O)N2CCC3CC3CC2)cc1-c1ncc(F)cn1` (centres unmarked) [Example 300, N-(3-(5-fluoropyrimidin-2-yl)-4-methylphenyl)-4-azabicyclo[5.1.0]octane-4-carboxamide], for which the IC50 reads like this: under setting [1], 1 to 10 µM; under setting [2], 1.2 µM.

As for `Cc1cc(F)c(NC(=O)N2[C@@H]3C[C@@H](C)C[C@H]2C3)cc1-c1ncccn1` [Example 253, cis-N-(2-fluoro-4-methyl-5-pyrimidin-2-ylphenyl)-3-methyl-6-azabicyclo[3.1.1]heptane-6-carboxamide], half-maximal inhibition under setting [2] (IC50) was put at 0.08 µM and the IC50 under setting [3] fell in the range of 0.0001 to 1 µM.

For the molecule `C[C@H]1CC1c1ccc(NC(=O)[C@@H]2CC2(F)F)cc1-c1ccccn1` (stereo partly drawn) [Example 127, (1S)-2,2-difluoro-N-[4-[trans-2-methylcyclopropyl]-3-pyridin-2-ylphenyl]cyclopropane-1-carboxamide], the concentration for half-maximal inhibition (IC50) was 1 to 10 µM under setting [1] and 5.6 µM under setting [2].

For the molecule `Cc1ccc(NC(=O)[C@@H]2CC2(F)F)cc1-c1ccc(Cl)cn1` [Example 160, (1S)-N-[3-(5-chloropyridin-2-yl)-4-methylphenyl]-2,2-difluorocyclopropane-1-carboxamide], the IC50 was 1 to 10 µM under setting [1] and 2.5 µM under setting [2].

With `COc1cncc(-c2cc(NC(=O)N3C4C[C@@H](C)C[C@H]3C4)ccc2C)n1` [Example 218, cis-N-(3-(6-methoxypyrazin-2-yl)-4-methylphenyl)-3-methyl-6-azabicyclo[3.1.1]heptane-6-carboxamide], the IC50 is, setting by setting: under setting [2], 0.03 µM; under setting [3], 0.0001 to 1 µM.
